{
  "source": "patent US5276205A",
  "about": "“Insecticides” (ICI Americas Inc., priority 1989, dated 1994)",
  "format_in_all_cases": "in vivo",
  "key": {"[1]": {"system": "Western Spotted Cucumber Beetle Larvae [Diabrotica undecimpunctata (Mannherheim)]", "test": "Western spotted cucumber beetle larvae soil test (Diab)", "conditions": "ppm in soil; max. 25 ppm", "description": "(§1) The compounds in Table 1 above were tested for insecticidal activity using the following testing procedures. LC50 values, based on the results of these tests and calculated according to dosage-mortality curves, are expressed in Table 2.\nWestern Spotted Cucumber Beetle Larvae [Diabrotica undecimpunctata (Mannherheim)]\nTen grams of moist potting soil was placed in a plastic cup. The test compound was dissolved in acetone. A 0.05 ml aliquot of the test sample, diluted to the desired concentration, was added to the soil. The cup was capped and the soil was mixed on a vortex mixer for approximately 15 seconds. An indentation was made on the surface of the soil and approximately 50 Diabrotica eggs were added. The eggs were covered with soil and maintained at room temperature (approximately 70° F. or 21° C.). Four days later a section of Romaine lettuce (Latuca sativa) leaf was placed in the treated cups. One week later the cups were examined for live larvae. Test concentrations ranged from 25 ppm downward. The LC-50 value is expressed below in Table 2 under the heading \"Diab\" in terms of ppm of the test compound in the soil."}, "[2]": {"system": "two-spotted mite [Tetranychus urticae (Koch)], adults", "test": "Two-spotted mite acaricidal test, adults (2SM-A)", "conditions": "percent in dip solution, mortality after 5-7 days, max. 0.05%", "source_text": "(§2) Acaricidal Evaluation Test\n(§3) The two-spotted mite (2SM) [Tetranychus urticae (Koch)] was employed in tests for miticides. The test procedure was as follows:\n(§4) Pinto bean plants (Phaseolus sp.), approximately 10 cm tall, were transplanted into sandy loam soil in small cups and thoroughly infested with two-spotted mites of mixed ages and sexes. Twenty-four hours later the infested plants were inverted and dipped for 2-3 seconds in 50-50 acetone-water solutions of the test compound. Treated plants were held in the greenhouse, and 5-7 days later mortality was determined for both adult mites and the nymphs hatching from eggs which were on the plants at the time of treatment. Test concentrations ranged from 0.05% downward. The LC-50 value is expressed below in Table 2 under the headings \"2SM-A\" (i.e., adults) and \"2SM-E\" (i.e. eggs) in terms of percent concentration of the test compound in the solution."}, "[3]": {"system": "Black Bean Aphid [Aphis fabae (Scop.)]", "test": "Black bean aphid insecticidal test (BBA)", "conditions": "percent in sprayed solution; mortality after 48 hours; max. 0.05%", "description": "as §1\nBlack Bean Aphid [Aphis fabae (Scop.)]\nNasturtium plants (Tropaeolum sp.) approximately 5 cm tall, were transplanted into sandy loam soil in small cups and infested with 25-50 black bean aphids of mixed ages. Twenty-four hours later they were sprayed to the point of runoff with 50-50 acetone-water solutions of the test compound. Treated plants were held in the greenhouse and mortality was recorded after 48 hours. Test concentrations ranged from 0.05% downward. The LC-50 value is expressed below in Table 2 under the heading \"BBA\" in terms of percent of the test compound in the sprayed solution."}, "[4]": {"system": "Tobacco Budworm [Heliothis virescens (Fabricius)], eggs", "test": "Tobacco budworm egg test (TBW-E)", "conditions": "2-day old eggs dipped; percent in acetone solution; max. 0.1%", "description": "The compounds in Table 1 above were tested for insecticidal activity using the following testing procedures.\nTobacco Budworm [Heliothis virescens (Fabricius)]\nEggs: Paper towel patches of 2-day old eggs of the tobacco budworm were dipped in acetone solutions of the test compound and placed in petri dishes containing a portion of larval rearing medium. […] Test concentrations ranged from 0.1% downward. The LC-50 value is expressed below in Table 2 under the heading \"TBW-E\" in terms of percent of the test compound in the solution."}, "[5]": {"system": "two-spotted mite [Tetranychus urticae (Koch)], eggs", "test": "Two-spotted mite acaricidal test, eggs (2SM-E)", "conditions": "percent in dip solution, mortality after 5-7 days, max. 0.05%", "source_text": "as §2, §3, §4"}, "[6]": {"system": "Housefly [Musca domestica]", "test": "Housefly insecticidal test (HF)", "conditions": "μg of test compound per 25 female flies; mortality after 48 hours; max. test level 100 μg", "description": "as §1\nHousefly [Musca domestica]\nThe test compound was diluted in acetone and aliquots pipetted onto the bottom of aluminum dishes. To ensure even spreading of the chemical on the bottom of the dishes, 1 ml of acetone containing 0.01% peanut oil was also added to each dish. After all solvents had evaporated, the dishes were placed in circular cardboard cages containing 25 female houseflies, 1-2 days old. The cages were covered on the bottom with cellophane and on the top with tulle netting, and each contained a sugar-water saturated cotton plug for maintenance of the flies. Mortality was recorded after 48 hours. Test levels ranged from 100 μg/25 female houseflies downward. The LC-50 value is expressed below in Table 2 under the heading \"HF\", in terms of μg of the test compound per 25 female flies."}, "[7]": {"system": "Cabbage Looper [Trichoplusia ni (Hubner)]", "test": "Cabbage looper insecticidal test (CL)", "conditions": "second-instar larvae; percent in solution; mortality 3-5 days later; max. 0.1%", "description": "as §1\nCabbage Looper [Trichoplusia ni (Hubner)]\nThe test compound was diluted in a 50-50 acetone-water solution. Cotyledons of hyzini squash (Calabacita abobrinha), approximately 1×1.5 inches, were immersed in the test solutions for 2-3 seconds and placed on a wire screen to dry. The dried leaves were placed in petri dishes containing a moistened piece of filter paper and infested with 5 second-instar cabbage looper larvae. The dishes were placed in a high humidity chamber. Mortality of the larvae was recorded 3-5 days later. Test concentrations ranged from 0.1% downward. The LC-50 value is expressed below in Table 2 under the heading \"CL\" in terms of percent of the test compound in solution."}},
  "data": [
    {"smiles": "OC(CCc1cccc(Oc2ccccc2)c1)(Cc1cccc(Cl)c1)C1CC1", "note": "(centres unmarked) [Compound 4]", "values": [
      {"measurement": "LC50 Diab.", "setting": "[1]", "value": "> 25 ppm (soil)"},
      {"measurement": "LC50 2-SM A", "setting": "[2]", "value": "> 0.05", "unit": "%"},
      {"measurement": "LC50 BBA", "setting": "[3]", "value": "> 0.05", "unit": "%"},
      {"measurement": "LC50 TBW E", "setting": "[4]", "value": "> 0.1", "unit": "%"},
      {"measurement": "LC50 2-SM E", "setting": "[5]", "value": "> 0.05", "unit": "%"},
      {"measurement": "LC50 HF", "setting": "[6]", "value": "> 100", "unit": "µg"},
      {"measurement": "LC50 CL", "setting": "[7]", "value": 0.035, "unit": "%"}
    ]},
    {"smiles": "Cc1ccc(CC(O)(CCc2cccc(Oc3ccccc3)c2)C(C)C)cc1", "note": "(centres unmarked) [Compound 2]", "values": [
      {"measurement": "LC50 Diab.", "setting": "[1]", "value": "> 25 ppm (soil)"},
      {"measurement": "LC50 2-SM A", "setting": "[2]", "value": "> 0.05", "unit": "%"},
      {"measurement": "LC50 BBA", "setting": "[3]", "value": 0.05, "unit": "%"},
      {"measurement": "LC50 TBW E", "setting": "[4]", "value": "> 0.1", "unit": "%"},
      {"measurement": "LC50 2-SM E", "setting": "[5]", "value": "> 0.05", "unit": "%"},
      {"measurement": "LC50 HF", "setting": "[6]", "value": "> 100", "unit": "µg"},
      {"measurement": "LC50 CL", "setting": "[7]", "value": 0.016, "unit": "%"}
    ]},
    {"smiles": "OC(CCc1cccc(Oc2ccccc2)c1)(Cc1ccc(Cl)cc1)C1CC1", "note": "(centres unmarked) [Compound 3]", "values": [
      {"measurement": "LC50 Diab.", "setting": "[1]", "value": "> 25 ppm (soil)"},
      {"measurement": "LC50 2-SM A", "setting": "[2]", "value": "> 0.05", "unit": "%"},
      {"measurement": "LC50 BBA", "setting": "[3]", "value": "> 0.05", "unit": "%"},
      {"measurement": "LC50 TBW E", "setting": "[4]", "value": "> 0.1", "unit": "%"},
      {"measurement": "LC50 2-SM E", "setting": "[5]", "value": "> 0.05", "unit": "%"},
      {"measurement": "LC50 HF", "setting": "[6]", "value": "> 100", "unit": "µg"},
      {"measurement": "LC50 CL", "setting": "[7]", "value": 0.025, "unit": "%"}
    ]},
    {"smiles": "CC(C)C(O)(CCc1cccc(Oc2ccccc2)c1)Cc1ccc(Cl)cc1", "note": "(centres unmarked) [Compound 1, 1-(4-chlorophenyl)-2-isopropyl-4-(3-phenoxyphenyl)-2-butanol]", "values": [
      {"measurement": "LC50 Diab.", "setting": "[1]", "value": "> 25 ppm (soil)"},
      {"measurement": "LC50 2-SM A", "setting": "[2]", "value": "> 0.05", "unit": "%"},
      {"measurement": "LC50 BBA", "setting": "[3]", "value": 0.05, "unit": "%"},
      {"measurement": "LC50 TBW E", "setting": "[4]", "value": "> 0.1", "unit": "%"},
      {"measurement": "LC50 2-SM E", "setting": "[5]", "value": "> 0.05", "unit": "%"},
      {"measurement": "LC50 HF", "setting": "[6]", "value": "> 100", "unit": "µg"},
      {"measurement": "LC50 CL", "setting": "[7]", "value": 0.015, "unit": "%"}
    ]},
    {"smiles": "CC(C)C(O)(CCc1cccc(Oc2ccccc2)c1)Cc1cccc(Cl)c1", "note": "(centres unmarked) [Compound 5]", "values": [
      {"measurement": "LC50 Diab.", "setting": "[1]", "value": "> 25 ppm (soil)"},
      {"measurement": "LC50 2-SM A", "setting": "[2]", "value": "> 0.05", "unit": "%"},
      {"measurement": "LC50 BBA", "setting": "[3]", "value": 0.05, "unit": "%"},
      {"measurement": "LC50 TBW E", "setting": "[4]", "value": "> 0.1", "unit": "%"},
      {"measurement": "LC50 2-SM E", "setting": "[5]", "value": "> 0.05", "unit": "%"},
      {"measurement": "LC50 HF", "setting": "[6]", "value": 84, "unit": "µg"},
      {"measurement": "LC50 CL", "setting": "[7]", "value": 0.008, "unit": "%"}
    ]}
  ]
}
